Structures can show the parent of a compound that is named as a salt.
Columns and labels:
[1] = tested on: Hela; assay: Antiproliferation assay (XTT), Hela; type: cell-based; settings: 7 days incubation; for EC50: Homo sapiens, HeLa, 168 h, read-out: Antitumor activity EC50, Hela
Method: (§1) The antitumor activity of selected compounds was evaluated against the proliferation of a panel of MLL-r leukemia and other cancer cells. MV4;11 and Molm-13 leukemia cells contain MLL-AF4 and MLL-AF9 fusion oncogenes, respectively. NB4 and HL60 are AML cells without MLL translocation. Hela (cervical cancer) is a solid tumor cell line. […] The anti-proliferation activity of these compounds against other AML cells (i.e., NB4 and HL60) might be due to their inhibition of SEC-mediated gene expression (e.g., Myc), as observed in our previous studies.
(§2) Proliferation inhibition assays were performed using an XTT assay kit (Biotium, Fremont, CA, USA) following our previous methods. The antiproliferation EC50 values were determined using Prism 5 and the reported results were the mean values of at least three independent experiments. The incubation time for all compounds was 7 days.

[2] = tested on: NB4; assay: Antiproliferation assay (XTT), NB4; type: cell-based; settings: Homo sapiens, NB-4, 168 h, 7 days incubation, read-out: Antitumor activity EC50, NB4;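 further: EC50 values in Micromolar not Nanomolar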
Method: as §1, §2

[3] = tested on: HL60; assay: Antiproliferation assay (XTT), HL60; type: cell-based; settings: Homo sapiens, HL-60, 168 h, 7 days incubation, read-out: Antitumor activity EC50, HL60;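 further: EC50 values in Micromolar not Nanomolar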
Method: as §1, §2

[4] = tested on: MV4;11; assay: Antiproliferation assay (XTT), MV4;11; type: cell-based; settings: Homo sapiens, MV4-11, 168 h, 7 days incubation, read-out: Antitumor activity EC50, MV4;11;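 further: EC50 values in Micromolar not Nanomolar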
Method: as §1, §2

[5] = target: T1, AF9-DOT1L interaction (Homo sapiens, UniProt P42568); assay: AlphaLisa assay, AF9-DOT1L interaction; type: binding; settings: for IC50: MBP-protein 5 nM, biotinylated peptide 40 nM, 3 independent experiments with standard deviation, read-out: IC50 (μM) against the AF9-DOT1L interaction; for inhibition at 5 µM: compound at 5 μM, read-out: % Inhibition at 5 μM against the AF9-DOT1L interaction
T1 construct: human AF9 AHD domain (475–568); made in house; host or cells: E. coli BL21(DE3)
T1 sequence (P42568 475-568): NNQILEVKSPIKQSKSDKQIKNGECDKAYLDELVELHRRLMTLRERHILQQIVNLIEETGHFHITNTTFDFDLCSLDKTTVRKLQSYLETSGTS
Excerpt: An AlphaLisa assay we previously developed was used for compound screening for inhibitors of the AF9-DOT1L interaction. The PPI takes the DOT1L-peptide coated donor beads and AF9 AHD coated acceptor beads together. The donor beads are illuminated with a laser beam (680 nm) to generate singlet oxygen radicals, which activate the adjacent acceptor beads to produce luminescence at 615 nm. When a compound can disrupt such PPI and separate the donor and acceptor beads, the highly unstable radicals are rapidly quenched by water without generating luminescence.
(§3) The cDNA for the human AF9 AHD domain (475–568) and ENL AHD domain (489–559) was synthesized (by Genscript, Piscataway, NJ, USA) and inserted into the pMAL c5X expression plasmid. The DOT1L peptide (Biotin-AHX-[…]) and AF4 peptide (Biotin-AHX-[…]) for the Alpha assay were purchased from Genscript.
(§4) Alpha assays were developed in our previous publication, using a Perkin-Elmer AlphaLisa anti-MBP kit, which contains streptavidin donor beads and anti-MBP acceptor beads. Briefly, the assay was performed using a MBP-protein (5 nM), a biotinylated peptide (40 nM), and increasing concentrations of a compound in 25 µL buffer (PBS with 0.5% BSA, pH 7.5) in 384-well plates according to the manufacturer’s protocol and measured with a Tecan SPARK microplate reader. Data were imported into Prism (version 5.0), and IC50 values from 3 independent experiments with standard deviation were obtained by using a standard dose-response curve fitting.

[6] = tested on: Molm13; assay: Antiproliferation assay (XTT), Molm-13; type: cell-based; settings: Homo sapiens, MOLM-13, 168 h, 7 days incubation, read-out: Antitumor activity EC50, Molm13;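 further: EC50 values in Micromolar not Nanomolar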
Method: as §1, §2

[7] = target: T2, ENL-AF4 (Homo sapiens, UniProt Q03111); assay: AlphaLisa assay, ENL-AF4 interaction; type: binding; settings: ENL AHD, AF4 peptide
T2 construct: ENL AHD domain (489–559); made in house; host or cells: E. coli BL21(DE3)
T2 sequence (Q03111 489-559): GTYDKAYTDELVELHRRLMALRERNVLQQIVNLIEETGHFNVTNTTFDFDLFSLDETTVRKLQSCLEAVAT
Method: (§5) Transcription cofactor AF4, which is the most frequent (~35%) fusion protein in MLL1-r leukemia, is another binding partner of AF9/ENL [35, 36, 37]. The AF9/ENL-AF4 interactions are essential for the formation of SEC, which causes aberrant gene expression in MLL-r leukemia and other AMLs. Using our previously developed AlphaLisa assays, selected compounds were tested for their ability to inhibit the PPIs between AF9 or ENL and AF4.
as §3, §4

[8] = target: T3, AF9-AF4 (Homo sapiens, UniProt P42568); assay: AlphaLisa assay, AF9-AF4 interaction; type: binding; settings: AF9 AHD, AF4 peptide
T3 construct: human AF9 AHD domain (475–568); made in house; host or cells: E. coli BL21(DE3)
T3 sequence (P42568 475-568): T1 sequence (P42568 475-568)
Method: as §5, §3, §4

[9] = tested on: panel of MLL-r leukemia and other cancer cells; assay: Antiproliferation assay (XTT), panel of MLL-r leukemia and other cancer cells; type: cell-based; settings: 7 days; for Inhibition of tumor cell proliferation (in words): MV4;11, Molm-13, NB4, HL60 and Hela cells; for EC50: 168 h, MV4;11, Molm-13, NB4 and HL60 cells, read-out: Antitumor activity EC50, span over MLL-r leukemia and AML cells
Method: as §1, §2

| EC50 [1] [µM] | EC50 [3] [µM] | EC50 [4] [µM] | IC50 [5] [µM] | EC50 [6] [µM] | inhibition at 5 µM [5] [%] | SMILES | EC50 [2] [µM] | other results |
| --- | --- | --- | --- | --- | --- | --- | --- | --- |
| > 50 | 50 | 33 ± 2.8 | 4.5 ± 0.01 | 29 ± 2.5 | – | O=C(NCC1CCNCC1)c1c[nH]c2cc(-c3ccc(N4CCCCC4)cc3)ccc12 [Compound 2, 6-(4-(Piperidin-1-yl)phenyl)-N-(piperidin-4-ylmethyl)-1H-indole-3-carboxamide hydrochloride] | 32 ± 2 | – |
| > 50 | 50 | 26 ± 1.8 | 2.9 ± 0.1 | 50 | – | O=C(NCC1CCNCC1)c1c[nH]c2cc(-c3ccc(N4CCCC4)cc3)ccc12 [Compound 12, 6-(4-(Pyrrolidin-1-yl)phenyl)-N-(piperidin-4-ylmethyl)-1H-indole-3-carboxamide hydrochloride] | 50 | – |
| > 50 | 50 | 22 ± 2 | 3.6 ± 0.3 | 10 ± 1.6 | – | O=C(NCC1CCNCC1)c1cc2cc(-c3ccc(N4CCCCC4)cc3)ccc2[nH]1 [Compound 15] | > 50 | – |
| – | – | – | 2.7 ± 0.2 | – | – | O=C(NCC1CCNCC1)c1cc2cc(-c3ccc(N4CCCC4)cc3)ccc2[nH]1 [Compound 16] | – | IC50 [7]: 1.9 ± 0.3 µM; IC50 [8]: 1.9 ± 0.1 µM |
| > 50 | > 50 | > 50 | > 30 | > 50 | – | O=C(NCC1CCNCC1)c1cc2cc(-c3cn[nH]c3)ccc2[nH]1 [Compound 22] | > 50 | Inhibition of tumor cell proliferation (in words) [9]: None of these three compounds inhibited tumor cell proliferation; IC50 [7]: > 50 µM; IC50 ENL-AF4 [7]: did not inhibit; IC50 [8]: > 50 µM; IC50 AF9-AF4 [8]: did not inhibit |
| 50 | 26 ± 2.6 | 8.7 ± 0.9 | 5.3 ± 0.1 | 9.4 ± 0.8 | – | O=C(NCC1CCNCC1)c1cc2ccc(-c3ccc(N4CCCC4)cc3)cc2s1 [Compound 25, 6-(4-(Pyrrolindin-1-yl)phenyl)-N-(piperidin-4-ylmethyl)-benzo[b]thiophene-2-carboxamide hydrochloride] | 10 ± 0.5 | EC50 [9]: 8.7 to 26 µM; IC50 [7]: 7.9 ± 1.5 µM; IC50 [8]: 7.7 ± 0.9 µM |
| 50 | 9.7 ± 1.2 | 21 ± 1.2 | 7.2 ± 0.4 | 13 ± 1.7 | – | Cl.O=C(NCC1CCNCC1)c1coc2cc(-c3ccc(N4CCCCC4)cc3)ccc12 [Compound 57, 6-(4-(Piperidin-1-yl)phenyl)-N-(piperidin-4-ylmethyl)-benzofuran-3-carboxamide hydrochloride] | 11 ± 0.4 | Antitumor activity EC50, Hela [1]: did not affect the growth of Hela cells; EC50 [9]: 9.7 to 21 µM |
| – | – | – | – | – | 0 | O=C(NCC1CCNCC1)c1cc2ccc(-c3ccc(C(=O)N4CCC(N5CCCCC5)CC4)cc3)cc2o1 [Compound 66, 6-(4-((1,4′-Bipiperidine-1-yl)carbonyl)phenyl)-N-(piperidin-4-ylmethyl)-benzofuran-2-carboxamide hydrochloride] | – | – |
| – | – | – | – | – | 0 | O=C(NCC1CCNCC1)c1cc2ccc(-c3ccc(-c4ccccc4)cc3)cc2o1 [Compound 67, 6-((1,1′-Biphenyl)-4-yl)-N-(piperidin-4-ylmethyl)-benzofuran-2-carboxamide hydrochloride] | – | – |
| – | – | – | – | – | 33 | O=C(NCC1CCNCC1)c1cc2ccc(-c3cccc(-c4ccccc4)c3)cc2o1 [Compound 68, 6-((1,1′-Biphenyl)-3-yl)-N-(piperidin-4-ylmethyl)-benzofuran-2-carboxamide hydrochloride] | – | – |
| – | – | – | – | – | 33 | O=C(NCC1CCNCC1)c1cc2ccc(-c3ccc4c(c3)OCCO4)cc2o1 [Compound 69, 6-(2,3-Dihydrobenzo[b][1,4]dioxin-6-yl)-N-(piperidin-4-ylmethyl)-benzofuran-2-carboxamide hydrochloride] | – | – |
| – | – | – | – | – | 19 | CS(=O)(=O)c1ccc(-c2ccc3cc(C(=O)NCC4CCNCC4)oc3c2)cc1 [Compound 70, 6-(4-(Methylsulfonyl)phenyl)-N-(piperidin-4-ylmethyl)-benzofuran-2-carboxamide hydrochloride] | – | – |
| – | – | – | – | – | 27 | O=C(NCc1ccc(-c2ccc3cc(C(=O)NCC4CCNCC4)oc3c2)cc1)OCc1ccccc1 [Compound 71, 6-(4-(Benzyloxycarbonylaminomethyl)phenyl)-N-(piperidin-4-ylmethyl)-benzofuran-2-carboxamide hydrochloride] | – | – |
| > 50 | > 50 | ~50 | > 30 | > 50 | – | Cl.NCc1ccc(-c2ccc3cc(C(=O)NCC4CCNCC4)oc3c2)cc1 [Compound 72, 6-(4-(Aminomethyl)phenyl)-N-(piperidin-4-ylmethyl)-benzofuran-2-carboxamide hydrochloride] | > 50 | Inhibition of tumor cell proliferation (in words) [9]: None of these three compounds inhibited tumor cell proliferation |
| – | – | – | – | – | 15 | N#Cc1ccc(-c2ccc3cc(C(=O)NCC4CCNCC4)oc3c2)cc1 [Compound 73, 6-(4-Cyanophenyl)-N-(piperidin-4-ylmethyl)-benzofuran-2-carboxamide hydrochloride] | – | – |
| – | – | – | 4.6 ± 0.3 | – | – | O=C(NCC1CCNCC1)c1cc2ccc(Nc3ccc(N4CCCCC4)cc3)cc2o1 [Compound 74, 6-((4-(Piperidin-1-yl)phenyl)amino)-N-(piperidin-4-ylmethyl)-benzofuran-2-carboxamide hydrochloride] | – | – |
| – | – | – | – | – | 23 | O=C(NCC1CCNCC1)c1cc2ccc(Nc3ccc(OC(F)(F)F)cc3)cc2o1 [Compound 75, 6-((4-Trifuluoromethoxyl)phenyl)amino)-N-(piperidin-4-ylmethyl)-benzofuran-2-carboxamide hydrochloride] | – | – |
| – | – | – | – | – | 24 | COc1ccc(Oc2ccc3cc(C(=O)NCC4CCNCC4)oc3c2)cc1 [Compound 76, 6-(4-Methoxylphenoxyl)-N-(piperidin-4-ylmethyl)-benzofuran-2-carboxamide hydrochloride] | – | – |
| – | – | – | – | – | 20 | O=C(NCC1CCNCC1)c1cc2ccc(Oc3ccc(Oc4ccc(Cl)cc4)cc3)cc2o1 [Compound 77, 6-(4-(4-Cholorophenoxyl)phenoxyl)-N-(piperidin-4-ylmethyl)-benzofuran-2-carboxamide hydrochloride] | – | – |

Source: publication PMC10650850, “Discovery, Structure–Activity Relationship and In Vitro Anticancer Activity of Small-Molecule Inhibitors of the Protein–Protein Interactions between AF9/ENL and AF4 or DOT1L” (Cancers, 2023)
